Data on 14 compounds can be found in PubChem BioAssay (NCI).

What all share (test): DTP human tumour cell line panel, 48 h
Test [1] has as its system ACHN renal.
Test [2] deals with BT-549 breast.
Test [3] relates to CCRF-CEM leukemia.
The test system of test [4] is COLO 205 colon.
The test system of test [5] is HCT-116 colon.
Test [6] concerns HOP-62 NSCLC.
Test [7] has as its system IGROV1 ovarian.
Test [8] concerns KM12 colon.
The test system of test [9] is LOX IMVI melanoma.
For test [10], the system named is MALME-3M melanoma.
For test [11], the system named is NCI-H460 lung.
Test [12] has as its system OVCAR-3 ovarian.
For test [13], the system named is OVCAR-5 ovarian.
Test [14] has as its system RPMI-8226 leukemia.
For test [15], the system named is SF-539 CNS.
The test system of test [16] is SK-MEL-5 melanoma.
Test [17] concerns SK-OV-3 ovarian.
Test [18] relates to T-47D breast.
The test system of test [19] is U251 CNS.
The test system of test [20] is UACC-62 melanoma.

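Each compound was tested at five concentrations against cells in 96-well plates for 48 hours. Definition used: TGI = concentration required for complete inhibition of growth.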 Where a SMILES comes first, the peptide text is derived from it. The star is where a group is joined. Boc = CC(C)(C)OC(=O)*

For the compound `Cc1cc(-c2nc3cc(F)ccc3s2)ccc1NC(=O)C(C)N` (stereo not drawn), the TGI was 7.83 µM in test [1]; 8.49 µM in test [2]; 3.25 µM in [3]; 13.6 µM in test [4]; 6.57 µM in test [5]; 8.32 µM in test [6]. Also, the TGI in [7] came out at 4.76 µM; in test [8], 9.36 µM; in [9] it was 10.1 µM; in test [10], 25 µM; in test [11], 5.98 µM; in test [12], 7.32 µM. Moreover, the TGI is 5.52 µM in [13]; 16.9 µM in test [14]; 14.2 µM in test [15]; 13.6 µM in test [16]; 8.84 µM in [17]; 6.35 µM in test [18]. Further, the values for the TGI in [19] and in [20] were 9.42 µM and 7.7 µM, respectively.

For the compound `COc1ccc(-n2c(=O)n(C)c(=O)n2-c2c(C)c(C)c(C)c(C)c2C)cc1`, the concentration for total growth inhibition (TGI) in test [1], in test [2], in test [3], in test [4], in test [5] and in test [6] was more than 100 µM throughout. For the same compound, the TGI in test [7], in test [8], in test [9], in test [10], in test [11] and in [12] was more than 100 µM throughout. The TGI in test [13], in test [14], in [15], in test [16], in test [17] and in test [18] was more than 100 µM each time. For the same compound, the TGI in [19] and in test [20] was more than 100 µM each time.

Turning to `CC1C(=O)C23OC[C@@]1(C)C1(O)CC[C@@H](C)[C@]21CC3=O` (stereo partly drawn), the TGI in [1], in test [2], in test [3], in test [4], in [5] and in [6] was more than 100 µM in each case. Moreover, the TGI in test [7], in [8], in test [9], in test [10], in test [11] and in [12] was more than 100 µM throughout. The TGI in [13], in test [14], in test [15], in test [16], in [17] and in [18] was more than 100 µM each time. Further, the TGI in [19] and in test [20] was more than 100 µM throughout.

Consider `COc1ccc(C2C(Cl)C(=O)N2NC(=O)c2ccc(N)cc2)cc1OC` (stereo not drawn), for which the TGI in [1] worked out at 26.9 µM; in [2], 18.3 µM; in test [3], 4.45 µM; in test [4], 30.3 µM; in test [5], 3 µM; in [6], 32.6 µM. Moreover, the TGI in test [7] came to 3.27 µM; in [8] it was 5.64 µM; in test [9], 3.55 µM; in test [10], 25.6 µM; in test [11] it was 51.8 µM; in test [12], 13.1 µM. Besides, the TGI in [13] came to 34.8 µM; in [14], 9.04 µM; in test [15] it was 21.8 µM; in test [16], 26.3 µM; in test [17], 33 µM; in test [18], 24.9 µM. The values for the TGI in [19] and in [20] were 7.28 µM and 16 µM, respectively.

Take `Cc1cc2c(=O)[nH]nc(N)c2c(N)n1`: the TGI in [1], in [2], in test [3], in [4], in test [5] and in test [6] was more than 100 µM in each case. Moreover, the TGI in test [7], in test [8], in test [9], in [10], in test [11] and in test [13] was more than 100 µM in each case. Further, the TGI in test [14], in test [16], in test [17], in [18], in test [19] and in test [20] was more than 100 µM throughout.

For `O=C1N[C@@H]2c3c(Br)sc(Br)c3C(=O)[C@@H]2N1`, the TGI was 14.1 µM in test [1]; 53 µM in test [2]; 3.29 µM in [3]; 12.1 µM in test [4]; 3.88 µM in test [5]; 20.6 µM in test [6]. For the same compound, the total growth inhibition concentration (TGI) in [7] was determined as 7.16 µM; in test [8] it was 19.4 µM; in test [9], 4.28 µM; in [10], 18.3 µM; in test [11], 18.3 µM; in [12] it was 6.72 µM. For the same compound, the TGI in test [13] amounted to 35.1 µM; in test [14] it was 18.5 µM; in [15], 8.88 µM; in [16], 23.9 µM; in test [17] it was 27.1 µM; in [18], 21.5 µM. In addition, the figures for the TGI in [19] and in test [20] were 7.03 µM and 15.4 µM, respectively.

Turning to `CC(C)(C)OC(=O)N/N=C(/N)c1ccccc1`, the TGI in [1], in test [2], in [3], in test [4], in [5] and in test [6] was more than 100 µM in each case. Besides, the TGI in [7], in [8], in test [9], in [10], in [11] and in test [12] was more than 100 µM each time. The TGI in test [13], in test [14], in [15], in [16], in test [17] and in test [18] was more than 100 µM each time. Besides, the TGI in test [19] and in test [20] was more than 100 µM in each case.

Regarding `O=C1CSC(/C=C/c2ccccc2)N1c1ccc(-n2c(-c3ccccc3)nc3ccccc3c2=O)cc1` (stereo not drawn), the TGI in [2], in [3], in test [4], in test [5], in test [6] and in [7] was more than 100 µM each time. Besides, the TGI in test [8], in [9], in test [10], in [11], in [12] and in test [13] was more than 100 µM in each case. For the same compound, the concentration for total growth inhibition (TGI) in [14] is more than 100 µM; in [15], more than 100 µM; in [16], more than 100 µM; in test [17], 69 µM; in test [18] it was more than 100 µM; in test [19], more than 100 µM. For the same compound, the TGI in test [20] is more than 100 µM.

As to `CCOC(=O)c1c(N2CCOCC2)[nH]c(=O)c(C(c2ccc(Cl)c([N+](=O)[O-])c2)c2c(O)c(C(=O)OCC)c(N3CCOCC3)[nH]c2=O)c1O`, the TGI is more than 100 µM in test [1]; 75.1 µM in [2]; 40.4 µM in test [3]; more than 100 µM in test [4]; 63.6 µM in [5]; more than 100 µM in test [6]. The TGI in test [8] was more than 100 µM; in test [9], 48.1 µM; in test [10], more than 100 µM; in [11], more than 100 µM; in test [12], 35.5 µM; in [13] it was more than 100 µM. In addition, the TGI in [14] is more than 100 µM; in test [15], 59.7 µM; in [16], 74.5 µM; in [17], more than 100 µM; in test [18] it was 48.8 µM; in [19], 41.9 µM. The same compound registered a TGI in [20] of more than 100 µM.

For `CCOC(=O)C(CC(C)C)NC(=O)C(Cc1ccccc1)NC(=O)CNC(=O)OC(C)(C)C` (stereo not drawn) (Boc-Gly-Phe-Leu-OEt; configuration not given here), the TGI was 30.8 µM in test [1]; 50.9 µM in test [2]; 41.3 µM in test [3]; 32.6 µM in [5]; 64 µM in test [6]; 49 µM in test [7]. In addition, the TGI in test [8] was determined as 37.5 µM; in test [9], 34.3 µM; in test [10], 39.4 µM; in test [11] it was 26.6 µM; in [12], 34.4 µM; in test [14], 45.8 µM. Also, the TGI in test [15] stood at 28.5 µM; in [16], 36.8 µM; in [17], 50.9 µM; in test [18] it was 61 µM; in [19], 31.9 µM; in test [20], 35.9 µM.

`COc1cccc(-c2cc(=O)c3cccnc3[nH]2)c1`: the TGI in [1], in test [2], in [3], in test [5], in test [6] and in test [7] was more than 100 µM throughout. The TGI in test [8], in [9], in test [10], in test [12], in [13] and in [14] was more than 100 µM throughout. Further, the TGI in test [15] was 0.538 µM; in test [16], 13.1 µM; in test [17] it was more than 100 µM; in test [18], more than 100 µM; in test [19], more than 100 µM; in test [20], more than 100 µM.

Regarding `O=C(NNC(=O)c1ccccc1Cl)c1ccccc1O`, the TGI in test [2], in test [3], in test [4], in [5], in test [6] and in [7] was more than 100 µM throughout. In addition, the TGI in test [8], in [9], in [10], in test [11], in test [12] and in test [13] was more than 100 µM throughout. In addition, the TGI in test [14], in test [15], in [16], in [17], in test [18] and in [19] was more than 100 µM in each case. Besides, the TGI in test [20] is more than 100 µM.

Consider `CCOC(=O)CCC(NC(=O)c1ccc(Oc2nc3ccccc3nc2C(=O)OCC)cc1)C(=O)OCC` (stereo not drawn), for which the TGI in test [1], in test [2], in [3], in [4], in test [5] and in test [6] was more than 100 µM throughout. Moreover, the TGI in [7], in test [8], in [9], in [11], in test [12] and in [13] was more than 100 µM each time. Moreover, the TGI in test [14], in test [15], in [16], in test [18], in test [19] and in [20] was more than 100 µM throughout.

`CCOc1cc(NC(C)=O)ccc1C(=O)NN1C(=O)CSC1c1ccc(O)c(OC)c1` (stereo not drawn): the TGI in test [1] was more than 100 µM; in test [2], 98.6 µM; in [3], more than 100 µM; in test [4] it was more than 100 µM; in test [5], more than 100 µM; in test [6], more than 100 µM. The TGI in test [7], in test [8], in test [9], in test [10], in [11] and in [12] was more than 100 µM throughout. Besides, the TGI in test [13], in test [14], in [15], in test [16], in [17] and in test [18] was more than 100 µM throughout. Further, in test [20], the TGI is more than 100 µM.
